Test results taken from PubChem BioAssay AID330 (DTP/NCI, 2004).
Values joined by “and” are separate entries in the source; they are usually repeats but may differ in a detail not shown here. Equal entries are not always repeated. Toxic doses and inconclusive results are not listed.

Tested on: P388 leukemia ip, CD2F1 mice, survival T/C
Experiment: NCI In Vivo Anticancer Drug Screen. Data for tumor model P388 Leukemia (intraperitoneal) in CD2F1 (CDF1) mice
Details: endpoint: median survival time, higher = longer survival
Procedure, shortened: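 Mice carrying the transplanted tumor received test compound or vehicle. Survival was recorded in each group, and the value is the treated-group measurement divided by that of the vehicle-treated control group.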

[1] = dose: 50.0 mg/kg/injection, schedule: Q01DX005 (ip), vehicle: Klucel (hydroxypropylcellulose) (HPC)
[2] = dose: 100.0 mg/kg/injection, schedule: Q01DX005 (ip), vehicle: Klucel (hydroxypropylcellulose) (HPC)
[3] = dose: 200.0 mg/kg/injection, schedule: Q01DX005 (ip), vehicle: Klucel (hydroxypropylcellulose) (HPC)
[4] = dose: 50.0 mg/kg/injection, schedule: Q01DX009 (ip), vehicle: saline with Tween-80
[5] = dose: 100.0 mg/kg/injection, schedule: Q01DX009 (ip), vehicle: saline with Tween-80
[6] = dose: 50.0 mg/kg/injection, schedule: Q04DX003 (ip), vehicle: saline with Tween-80
[7] = dose: 100.0 mg/kg/injection, schedule: Q04DX003 (ip), vehicle: saline with Tween-80
[8] = dose: 50.0 mg/kg/injection, schedule: Q01DX009 (ip), vehicle: suspension in saline
[9] = dose: 100.0 mg/kg/injection, schedule: Q01DX009 (ip), vehicle: suspension in saline
[10] = dose: 200.0 mg/kg/injection, schedule: Q01DX009 (ip), vehicle: suspension in saline
[11] = dose: 100.0 mg/kg/injection, schedule: Q04DX002 (ip), vehicle: saline with Tween-80
[12] = dose: 200.0 mg/kg/injection, schedule: Q04DX002 (ip), vehicle: saline with Tween-80
[13] = dose: 400.0 mg/kg/injection, schedule: Q04DX002 (ip), vehicle: saline with Tween-80
[14] = dose: 50.0 mg/kg/injection, schedule: Q01DX009 (ip), vehicle: Klucel (hydroxypropylcellulose) (HPC)
[15] = dose: 100.0 mg/kg/injection, schedule: Q01DX009 (ip), vehicle: Klucel (hydroxypropylcellulose) (HPC)
[16] = dose: 200.0 mg/kg/injection, schedule: Q01DX009 (ip), vehicle: Klucel (hydroxypropylcellulose) (HPC)
[17] = dose: 50.0 mg/kg/injection, schedule: Q01DX005 (ip), vehicle: saline
[18] = dose: 100.0 mg/kg/injection, schedule: Q01DX005 (ip), vehicle: saline
[19] = dose: 240.0 mg/kg/injection, schedule: Q01DX005 (ip), vehicle: saline with Tween-80
[20] = dose: 60.0 mg/kg/injection, schedule: Q01DX005 (ip), vehicle: saline with Tween-80
[21] = dose: 120.0 mg/kg/injection, schedule: Q01DX005 (ip), vehicle: saline with Tween-80
[22] = dose: 100.0 mg/kg/injection, schedule: Q01DX005 (ip), vehicle: saline with Tween-80

## CCN(CC)CC(=O)Nc1ccc2c(c1)C(=O)c1ccc(NC(=O)CN(CC)CC)cc1C2=O
[1]
  T/C: 90 % of control
dose: 50.0 mg/kg/injection, schedule: Q01DX005 (ip), vehicle: acid diluted with saline
  T/C: 100 % of control
[2]
  T/C: 93 % of control
dose: 100.0 mg/kg/injection, schedule: Q01DX005 (ip), vehicle: acid diluted with saline
  T/C: 103 % of control
[3]
  T/C: 90 % of control
dose: 200.0 mg/kg/injection, schedule: Q01DX005 (ip), vehicle: acid diluted with saline
  T/C: 106 % of control

## C/C(=N\NC(=S)Nc1ccc(N(C)C)cc1)c1ccccn1
[4]
  T/C: 118 % of control
[5]
  T/C: 105 % of control

## COc1cc2c(c(OC)c1OC)-c1ccc(SC)c(=O)cc1C(NC(=O)COP(=O)(O)OCC(=O)NC1CCc3cc(OC)c(OC)c(OC)c3-c3ccc(SC)c(=O)cc31)CC2 (centres undefined)
dose: 0.78 mg/kg/injection, schedule: Q01DX009 (ip), vehicle: water
  T/C: 121 % of control
dose: 1.56 mg/kg/injection, schedule: Q01DX009 (ip), vehicle: water
  T/C: 114 % of control
dose: 6.25 mg/kg/injection, schedule: Q01DX009 (ip), vehicle: water
  T/C: 150 % of control

## CCCCNC(=O)OCCN(CCOC(=O)NCCCC)C(=O)N1c2ccccc2Sc2ccccc21
[6]
  T/C: 98 % of control
[7]
  T/C: 90 % of control
dose: 200.0 mg/kg/injection, schedule: Q04DX003 (ip), vehicle: saline with Tween-80
  T/C: 90 % of control

## O=C1CSC(=S)N1c1ccc(F)cc1F
[8]
  T/C: 97 % of control
[9]
  T/C: 100 % of control
[10]
  T/C: 100 % of control

## Nc1cc(=O)n2cn[nH]c2n1
[11]
  T/C: 100 % of control
[12]
  T/C: 103 % of control
[13]
  T/C: 103 % of control

## Cc1ccc(N=C(CC(C)C)C2C(=O)c3ccccc3C2=O)cc1
[1]
  T/C: 100 % of control
[2]
  T/C: 94 % of control
[3]
  T/C: 99 % of control

## CCC1(c2ccccc2)C(=O)N(CCCl)C(=O)N(CCCl)C1=O
[14]
  T/C: 92 % of control
[15]
  T/C: 92 % of control
[16]
  T/C: 92 % of control

## CCCCC(CC)C(=O)OC(C)C(N)=O (centres undefined)
[17]
  T/C: 105 % of control
[18]
  T/C: 101 % of control
dose: 200.0 mg/kg/injection, schedule: Q01DX005 (ip), vehicle: saline
  T/C: 101 % of control

## O=C(Nc1cc(Cl)ccc1Cl)Nc1ccc(Cl)cc1C(=O)c1ccccc1
dose: 15.0 mg/kg/injection, schedule: Q01DX005 (ip), vehicle: saline with Tween-80
  T/C: 89 % of control
dose: 30.0 mg/kg/injection, schedule: Q01DX005 (ip), vehicle: saline with Tween-80
  T/C: 90 % of control
[19]
  T/C: 90 % of control

## O=C1CC2(C(=O)O1)c1ccccc1-c1ccccc12
[20]
  T/C: 111 % of control
[21]
  T/C: 105 % of control
[19]
  T/C: 112 % of control

## CC(C)C(NC(=O)OC(C)(C)C)C(=O)ON1C(=O)CCC1=O (centres undefined)
[4]
  T/C: 118 % of control
[5]
  T/C: 111 % of control
dose: 200.0 mg/kg/injection, schedule: Q01DX009 (ip), vehicle: saline with Tween-80
  T/C: 99 % of control

## CC(C)C1OCC(CO)([N+](=O)[O-])CO1 (centres undefined)
[20]
  T/C: 102 % of control
[21]
  T/C: 100 % of control
[19]
  T/C: 93 % of control

## Clc1cccc(O[Si]23OCCN(CCO2)CCO3)c1
[1]
  T/C: 109 % of control
[2]
  T/C: 106 % of control
[3]
  T/C: 102 % of control

## CC(CC(=O)c1ccccc1)=NCCN=C(C)CC(=O)c1ccccc1.c1cc[c]([Sn][c]2ccccc2)cc1
dose: 25.0 mg/kg/injection, schedule: Q01DX001 (ip), vehicle: Klucel (hydroxypropylcellulose) (HPC)
  T/C: 108 % of control
dose: 50.0 mg/kg/injection, schedule: Q01DX001 (ip), vehicle: Klucel (hydroxypropylcellulose) (HPC)
  T/C: 124 % of control

## Cc1ccc2c(c1)P(=O)(c1ccccc1C(O)(C(F)(F)F)C(F)(F)F)c1cc(C)ccc1O2
dose: 100.0 mg/kg/injection, schedule: Q04DX002 (ip), vehicle: Klucel (hydroxypropylcellulose) (HPC)
  T/C: 101 % of control
dose: 200.0 mg/kg/injection, schedule: Q04DX002 (ip), vehicle: Klucel (hydroxypropylcellulose) (HPC)
  T/C: 94 % of control
dose: 400.0 mg/kg/injection, schedule: Q04DX002 (ip), vehicle: Klucel (hydroxypropylcellulose) (HPC)
  T/C: 90 % of control

## c1ccc(SC(Sc2ccccc2)=C2CCCCC2)cc1
[14]
  T/C: 100 % of control
[15]
  T/C: 106 % of control
[16]
  T/C: 90 % of control

## COc1ccc(C2C3=C(CCCC3=O)OC3=C2C(=O)CCC3)cc1
[20]
  T/C: 96 % of control
[21]
  T/C: 99 % of control
[19]
  T/C: 100 % of control

## CC(C)(C)N1COC(c2ccccc2)C1 (centres undefined)
[17]
  T/C: 106 % of control
[18]
  T/C: 111 % of control

## COc1cc([C@@H]2c3cc4c(cc3[C@H](O)[C@H]3COC(=O)[C@@H]23)OCO4)cc(OC)c1OC
dose: 7.5 mg/kg/injection, schedule: Q01DX010 (ip), vehicle: saline
  T/C: 109 % of control
dose: 25.0 mg/kg/injection, schedule: Q04DX003 (ip), vehicle: saline sonified
  T/C: 95 % of control
dose: 30.0 mg/kg/injection, schedule: Q01DX010 (ip), vehicle: saline
  T/C: 172 % of control
dose: 50.0 mg/kg/injection, schedule: Q04DX003 (ip), vehicle: saline sonified
  T/C: 112 % of control
dose: 100.0 mg/kg/injection, schedule: Q04DX003 (ip), vehicle: saline sonified
  T/C: 154 % of control

## OCC1COC(c2ccccc2)=N1 (centres undefined)
[1]
  T/C: 100 % of control
[2]
  T/C: 99 % of control
[3]
  T/C: 100 % of control

## CC(C)(C)OC(=O)N1CCCC1C1=N/C(=C\c2ccccc2)C(=O)O1 (centres undefined)
dose: 50.0 mg/kg/injection, schedule: Q01DX005 (ip), vehicle: saline with Tween-80
  T/C: 102 % of control
[22]
  T/C: 111 % of control
dose: 200.0 mg/kg/injection, schedule: Q01DX005 (ip), vehicle: saline with Tween-80
  T/C: 105 % of control

## Cc1ccc(NC(=S)SCc2ccc(Cl)cc2)cc1Br
[14]
  T/C: 105 % of control and 123 % of control
[8]
  T/C: 109 % of control
[15]
  T/C: 114 % of control
[9]
  T/C: 104 % of control
[16]
  T/C: 121 % of control and 122 % of control
[10]
  T/C: 90 % of control

## COCC1(C)CCCC2(C)C1CCC1(O)CCCCC12O (centres undefined)
dose: 100.0 mg/kg/injection, schedule: Q01DX001 (ip), vehicle: saline
  T/C: 100 % of control
dose: 200.0 mg/kg/injection, schedule: Q01DX001 (ip), vehicle: saline
  T/C: 100 % of control
dose: 400.0 mg/kg/injection, schedule: Q01DX001 (ip), vehicle: saline
  T/C: 108 % of control

## CS(=O)(=O)OCCCl
dose: 25.0 mg/kg/injection, schedule: Q01DX009 (ip), vehicle: saline with Tween-80
  T/C: 105 % of control and 108 % of control
[4]
  T/C: 107 % of control and 112 % of control
dose: 75.0 mg/kg/injection, schedule: Q01DX005 (ip), vehicle: saline with Tween-80
  T/C: 113 % of control and 86 % of control
dose: 75.0 mg/kg/injection, schedule: Q01DX009 (ip), vehicle: saline with Tween-80
  T/C: 102 % of control
dose: 100.0 mg/kg/injection, schedule: Q01DX001 (ip), vehicle: saline with Tween-80
  T/C: 100 % of control
[22]
  T/C: 114 % of control and 94 % of control
[5]
  T/C: 111 % of control
dose: 200.0 mg/kg/injection, schedule: Q01DX001 (ip), vehicle: saline with Tween-80
  T/C: 110 % of control

## CCOC(=O)N(CCCl)N=O
dose: 0.31 mg/kg/injection, schedule: Q01DX009 (ip), vehicle: saline with Tween-80
  T/C: 114 % of control
dose: 0.62 mg/kg/injection, schedule: Q01DX009 (ip), vehicle: saline with Tween-80
  T/C: 118 % of control
dose: 2.5 mg/kg/injection, schedule: Q01DX009 (ip), vehicle: saline with Tween-80
  T/C: 96 % of control

## CC(=O)c1nc2c(N)nc(N)nc2nc1C
dose: 25.0 mg/kg/injection, schedule: Q04DX003 (ip), vehicle: saline with Tween-80
  T/C: 96 % of control
[6]
  T/C: 96 % of control
[7]
  T/C: 96 % of control

## N#CC(C(=O)C(=O)Nc1ccc(Cl)cc1)c1c(Cl)cccc1Cl (centres undefined)
[11]
  T/C: 105 % of control
[12]
  T/C: 108 % of control
[13]
  T/C: 97 % of control
